This passage reports Ki, inhibition and IC50 results from ChEMBL document CHEMBL1208719, “Design and synthesis of 4-[3,5-dioxo-11-oxa-4,9-diazatricyclo[5.3.1.0(2,6)]undec-4-yl]-2-trifluoromethyl-benzonitriles as androgen receptor antagonists” (Bioorg Med Chem Lett, 2010).

Molecules are shown by their SMILES. pIC50, pKi: −log10 of the molar value. Bounds are passed on as bounds.

In test [1] the target is T1, Androgen receptor (Homo sapiens, UniProt P10275).
T1 sequence (P10275 whole entry): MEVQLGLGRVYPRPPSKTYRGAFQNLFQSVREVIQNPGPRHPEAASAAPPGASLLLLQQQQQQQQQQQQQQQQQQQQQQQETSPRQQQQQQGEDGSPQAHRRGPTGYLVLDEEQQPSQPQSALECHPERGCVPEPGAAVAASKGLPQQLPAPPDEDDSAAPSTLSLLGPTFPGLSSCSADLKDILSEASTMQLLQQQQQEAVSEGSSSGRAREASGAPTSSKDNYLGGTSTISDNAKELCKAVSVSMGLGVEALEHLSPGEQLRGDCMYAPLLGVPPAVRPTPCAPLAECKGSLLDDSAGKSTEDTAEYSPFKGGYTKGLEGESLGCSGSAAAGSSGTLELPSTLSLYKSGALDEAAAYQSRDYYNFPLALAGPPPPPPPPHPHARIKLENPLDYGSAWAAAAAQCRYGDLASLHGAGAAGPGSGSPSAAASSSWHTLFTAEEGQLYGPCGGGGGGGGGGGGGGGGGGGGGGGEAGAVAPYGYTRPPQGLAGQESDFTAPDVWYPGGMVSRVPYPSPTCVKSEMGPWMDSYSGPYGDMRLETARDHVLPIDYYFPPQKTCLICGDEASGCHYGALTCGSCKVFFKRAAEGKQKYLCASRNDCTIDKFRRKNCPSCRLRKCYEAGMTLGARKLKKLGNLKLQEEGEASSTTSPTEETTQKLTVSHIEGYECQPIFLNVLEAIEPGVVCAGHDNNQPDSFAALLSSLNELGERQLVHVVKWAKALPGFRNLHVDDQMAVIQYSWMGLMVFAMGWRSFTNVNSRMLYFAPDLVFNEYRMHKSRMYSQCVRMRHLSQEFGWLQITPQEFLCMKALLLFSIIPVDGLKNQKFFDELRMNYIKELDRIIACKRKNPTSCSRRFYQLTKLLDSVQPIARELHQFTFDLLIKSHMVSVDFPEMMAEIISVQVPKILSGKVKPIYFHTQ
Kind of test: Displacement of [3H]DHT from AR in human MDA-MB-453 cells.

A further test relates to MDA-MB-435. Kind of test: Cytotoxicity against human MDA-MB-435 cells assessed as inhibition of DHT-induced cell growth at 5 uM. In kind it is functional.
Another test deals with LNCaP. Kind of test: Cytotoxicity against human LNCAP cells assessed as inhibition of DHT-induced cell growth at 5 uM. In kind it is functional.
Test [2] addresses T1, Androgen receptor.
Description: Antagonist activity at human wild type AR expressed in human MDA-MB-435 cells by transactivation assay
In test [3] the target is T1, Androgen receptor. The source holds these as a separate data set.
Description: Antagonist activity at wild type human AR expressed in human LNCAP cells by transactivation assay

On to `C[C@]12CN(S(=O)(=O)c3ccc(F)cc3)C[C@](C)(O1)[C@@H]1C(=O)N(c3ccc(C#N)c(C(F)(F)F)c3)C(=O)[C@@H]12`, for which the pKi at Androgen receptor [1] is 7.49. The inhibition at 5 µM with MDA-MB-435 came out at 100%; with LNCaP, 95%. The pIC50 was 7.27 on Androgen receptor [2] and 6.16 at Androgen receptor [3].
Taken in the same sequence, the figures for `C[C@]12CNC[C@](C)(O1)[C@@H]1C(=O)N(c3ccc(C#N)c(C(F)(F)F)c3)C(=O)[C@@H]12` were 7.68, 98%, 20%, 6.89 and under 5.30.
In the case of `CCCN1C[C@@]2(C)O[C@@](C)(C1)[C@@H]1C(=O)N(c3ccc(C#N)c(C(F)(F)F)c3)C(=O)[C@@H]12`, at Androgen receptor [1], the pKi was 7.85. In addition, the inhibition at 5 µM in the test on MDA-MB-435 stood at 99%; with LNCaP it was 98%. Besides, the negative-log IC50 (pIC50) was 7.85 at Androgen receptor [2] and 7.60 on Androgen receptor [3].
As to `CCC(=O)N1C[C@@]2(C)O[C@@](C)(C1)[C@@H]1C(=O)N(c3ccc(C#N)c(C(F)(F)F)c3)C(=O)[C@@H]12`, the pKi on Androgen receptor [1] is 7.08. The inhibition at 5 µM in the test with MDA-MB-435 came out at 95%; in the test with LNCaP it was 91%. For the same compound, the pIC50 on Androgen receptor [2] was 6.89; against Androgen receptor [3] it was 6.26.
`CC(C)C(=O)N1C[C@@]2(C)O[C@@](C)(C1)[C@@H]1C(=O)N(c3ccc(C#N)c(C(F)(F)F)c3)C(=O)[C@@H]12` had a pKi at Androgen receptor [1] of 7.41. The inhibition at 5 µM with MDA-MB-435 came out at 98%; with LNCaP it was 72%. In addition, the figures for the pIC50 against Androgen receptor [2] and on Androgen receptor [3] were 6.67 and 5.79, respectively.
Consider `C[C@]12CN(C(=O)C3CC3)C[C@](C)(O1)[C@@H]1C(=O)N(c3ccc(C#N)c(C(F)(F)F)c3)C(=O)[C@@H]12`, for which the negative logarithm of the Ki (pKi) at Androgen receptor [1] was 7.44. The values for the inhibition at 5 µM in the test on MDA-MB-435 and in the test with LNCaP were 99% and 95%, respectively. On Androgen receptor [3], this compound had a pIC50 of 6.39.
As to `C[C@]12CN(C(=O)c3ccccc3)C[C@](C)(O1)[C@@H]1C(=O)N(c3ccc(C#N)c(C(F)(F)F)c3)C(=O)[C@@H]12`, the pKi at Androgen receptor [1] was 7.64. Also, the inhibition at 5 µM with MDA-MB-435 was 99%; with LNCaP, 98%. Besides, the pIC50 at Androgen receptor [2] was 7.27; on Androgen receptor [3], 6.75.
Taken in the same sequence, the figures for `CC(C)NC(=O)N1C[C@@]2(C)O[C@@](C)(C1)[C@@H]1C(=O)N(c3ccc(C#N)c(C(F)(F)F)c3)C(=O)[C@@H]12` were 7.01, 88%, 52%, 6.06 and 5.34.
Taken in the same sequence, the figures for `C[C@]12CN(C(=O)Nc3ccccc3)C[C@](C)(O1)[C@@H]1C(=O)N(c3ccc(C#N)c(C(F)(F)F)c3)C(=O)[C@@H]12` were 7.40, 99%, 98%, 7.80 and 6.91.
`CCOC(=O)N1C[C@@]2(C)O[C@@](C)(C1)[C@@H]1C(=O)N(c3ccc(C#N)c(C(F)(F)F)c3)C(=O)[C@@H]12` gave a negative logarithm of the Ki (pKi) on Androgen receptor [1] of 8.24. Moreover, the inhibition at 5 µM came out at 99% in the test with MDA-MB-435 and 93% with LNCaP. Also, the pIC50 against Androgen receptor [2] was 7.19; at Androgen receptor [3], 6.23.
As to `CCCOC(=O)N1C[C@@]2(C)O[C@@](C)(C1)[C@@H]1C(=O)N(c3ccc(C#N)c(C(F)(F)F)c3)C(=O)[C@@H]12`, on Androgen receptor [1], the pKi is 8.18. Besides, the inhibition at 5 µM in the test on MDA-MB-435 and in the test on LNCaP was 99% in each case. The pIC50 at Androgen receptor [2] was 8.03; at Androgen receptor [3] it was 7.27.
In the case of `C[C@]12CN(C(=O)Nc3ccc(F)cc3)C[C@](C)(O1)[C@@H]1C(=O)N(c3ccc(C#N)c(C(F)(F)F)c3)C(=O)[C@@H]12`, the pKi at Androgen receptor [1] was 7.54. Moreover, the inhibition at 5 µM with MDA-MB-435 stood at 99%; in the test on LNCaP it was 98%. Moreover, the pIC50 against Androgen receptor [2] was 7.41; at Androgen receptor [3], 6.98.
Taken in the same sequence, the figures for `C[C@]12CN(S(C)(=O)=O)C[C@](C)(O1)[C@@H]1C(=O)N(c3ccc(C#N)c(C(F)(F)F)c3)C(=O)[C@@H]12` were 7.25, 99%, 61%, 6.69 and 5.45.
Taken in the same sequence, the figures for `CCS(=O)(=O)N1C[C@@]2(C)O[C@@](C)(C1)[C@@H]1C(=O)N(c3ccc(C#N)c(C(F)(F)F)c3)C(=O)[C@@H]12` were 7.80, 99%, 90%, 7.07 and 6.22.
In the case of `C[C@]12CN(S(=O)(=O)c3ccccc3)C[C@](C)(O1)[C@@H]1C(=O)N(c3ccc(C#N)c(C(F)(F)F)c3)C(=O)[C@@H]12`, the pKi at Androgen receptor [1] is 7.92. The results for the inhibition at 5 µM with MDA-MB-435 and with LNCaP were 99% and 91%, respectively. Further, the pIC50 was 7.00 on Androgen receptor [2] and 6.01 at Androgen receptor [3].
On Androgen receptor [1], `C[C@]12CN(S(=O)(=O)c3ccccn3)C[C@](C)(O1)[C@@H]1C(=O)N(c3ccc(C#N)c(C(F)(F)F)c3)C(=O)[C@@H]12` showed a pKi of 7.03. In addition, the values for the inhibition at 5 µM in the test on MDA-MB-435 and in the test on LNCaP were 98% and 80%, respectively. Moreover, the pIC50 at Androgen receptor [2] is 6.77; against Androgen receptor [3] it was 5.91.
On to `C[C@]12CN(c3cc(Cl)ncn3)C[C@](C)(O1)[C@@H]1C(=O)N(c3ccc(C#N)c(C(F)(F)F)c3)C(=O)[C@@H]12`, for which the pKi on Androgen receptor [1] is 8.46. Further, the inhibition at 5 µM was found to be 98% in the test on MDA-MB-435 and 100% in the test with LNCaP. The compound also had a pIC50 against Androgen receptor [2] of 7.96.
Compound `C[C@]12CN(c3cccc(C(N)=O)c3)C[C@](C)(O1)[C@@H]1C(=O)N(c3ccc(C#N)c(C(F)(F)F)c3)C(=O)[C@@H]12` gave a pKi at Androgen receptor [1] of 8.05. The inhibition at 5 µM came to 98% in the test on MDA-MB-435 and 99% in the test with LNCaP. This compound showed a pIC50 against Androgen receptor [3] of 6.90.
In turn, `CN1C(=O)[C@]2(C)O[C@](C)(C1=O)[C@H]1C(=O)N(c3ccc(C#N)c(C(F)(F)F)c3)C(=O)[C@H]12` showed a pKi at Androgen receptor [1] of 7.70. Moreover, the pIC50 on Androgen receptor [2] is 5.67; against Androgen receptor [3], under 5.30.
Taken in the same sequence, the figures for `C[C@]12O[C@](C)(C(=O)N(CC3CC3)C1=O)[C@H]1C(=O)N(c3ccc(C#N)c(C(F)(F)F)c3)C(=O)[C@H]12` were 7.30, 6.06 and 5.48.
As to `CC(C)OC(=O)N1C[C@@]2(C)O[C@@](C)(C1)[C@@H]1C(=O)N(c3ccc(C#N)c(C(F)(F)F)c3)C(=O)[C@@H]12`, the pKi at Androgen receptor [1] was 7.96. Besides, the inhibition at 5 µM with MDA-MB-435 and in the test on LNCaP was 99% each time. In addition, the pIC50 is 7.92 on Androgen receptor [2] and 7.16 against Androgen receptor [3].
In the case of `CC(C)[N+]1([O-])C(=O)[C@]2(C)O[C@](C)(C1=O)[C@H]1C(=O)N(c3ccc(C#N)c(C(F)(F)F)c3)C(=O)[C@H]12` (some centres not stated), on Androgen receptor [1], the pKi is 5.44. Besides, in the test with MDA-MB-435, the inhibition at 5 µM was 58%. Besides, the pIC50 against Androgen receptor [2] is 5.41; against Androgen receptor [3], 5.30.
For the compound `CCNC(=O)N1C[C@@]2(C)O[C@@](C)(C1)[C@@H]1C(=O)N(c3ccc(C#N)c(C(F)(F)F)c3)C(=O)[C@@H]12`, at Androgen receptor [1], the pKi is 6.75. Besides, the inhibition at 5 µM was found to be 97% with MDA-MB-435 and 76% with LNCaP. Further, the pIC50 is 6.50 on Androgen receptor [2] and 5.84 at Androgen receptor [3].
Taken in the same sequence, the figures for `CC(C)N1C(=O)[C@]2(C)O[C@](C)(C1=O)[C@H]1C(=O)N(c3ccc(C#N)c(C(F)(F)F)c3)C(=O)[C@H]12` were 7.85, 99%, 99%, 7.49 and 6.90.
Taken in the same sequence, the figures for `C[C@]12CN(O)C[C@](C)(O1)[C@@H]1C(=O)N(c3ccc(C#N)c(C(F)(F)F)c3)C(=O)[C@@H]12` were 7.43, 97%, 79%, 6.74 and 5.89.
In the case of `CON1C[C@@]2(C)O[C@@](C)(C1)[C@@H]1C(=O)N(c3ccc(C#N)c(C(F)(F)F)c3)C(=O)[C@@H]12`, the pKi on Androgen receptor [1] is 8.43. The inhibition at 5 µM in the test on MDA-MB-435 was 99%; with LNCaP it was 72%. Also, the pIC50 against Androgen receptor [2] was 7.62; at Androgen receptor [3] it was 6.75.
